Measured values published in patent publication US20260364076A1 (Amgen Inc., priority 2022, published 2026).
Like-named read-outs stand apart in the source and are kept apart here.

What was measured:
[1] = Drug-drug interaction study with itraconazole (CYP3A4 inhibitor): sotorasib plasma PK in healthy subjects; conditions: human, in vivo, po, 360 mg; for AUC(0-inf): AUCinf (GLSM); for AUC(0-t): AUClast (GLSM)
Description: (§1) Safety and tolerability monitoring were performed throughout the study.

KRAS p.G12C tumors = conditions: mice bearing KRAS p.G12C tumors; cited from earlier work
[2] = in vivo; cited from earlier work
[3] = Drug-drug interaction study with rifampin (CYP3A4 inducer): sotorasib plasma PK in healthy subjects; format: in vivo, human; conditions: for Cmax / AUC(0-inf) / AUC(0-t): human, plasma, 960 mg; for AUC(0-inf): read-out: AUCinf (GLSM); for AUC(0-t): read-out: AUClast (GLSM)
Description: as §1

CYP3A = conditions: hepatic; cited from earlier work
[4] = Single-dose PK study in subjects with moderate or severe hepatic impairment compared to healthy subjects; format: in vivo, human
Description: (§2) This Example describes an open-label single-dose study of sotorasib that was conducted in healthy subjects and subjects with moderate or severe hepatic impairment (see, Inclusion/Exclusion criteria):
(§3) The primary objective of the study was to evaluate the pharmacokinetics (PK) of a single oral dose of sotorasib administered in subjects with moderate or severe hepatic impairment compared to subjects with normal hepatic function. The secondary objective of the study was to evaluate the safety and tolerability of sotorasib administered in subjects with moderate or severe hepatic impairment compared to subjects with normal hepatic function.
(§4) Subjects meeting eligibility requirements were assigned to 1 of 3 groups: Group 1—Normal function (No impairment, n=6-12); Group 2—Moderate impairment (Child-Pugh Class B, n=6-8); Group 3—Severe impairment (Child-Pugh Class C, n=6-8). The classification is based on Child-Pugh scores as per Figg et al. (1995).
The plasma PK parameters of sotorasib will be calculated using standard noncompartmental methods.
The data from hepatically impaired subjects (Group 2 and 3; tests) and control subjects (normal hepatic function [Group 1]; reference) will be included in the analysis. Geometric mean ratios (Test/Reference) for Cmax and AUC values and associated 90% confidence intervals will be estimated.
Additional parameters may be calculated, and sotorasib metabolites may be analyzed. PK parameters for the metabolites, if calculated, will not be subject to inferential statistical analysis. Specific details will be presented in the Statistical Analysis Plan for this study.

[5] = system: cancer with the KRAS G12C mutation; conditions: cited from earlier work
KRAS^G12C = conditions: cited from earlier work
[6] = Safety and tolerability in single-dose hepatic impairment study; format: in vivo, human
Description: as §2, §3, §4

[7] = system: cells and tumors harboring KRAS G12C mutations; conditions: cited from earlier work
[8] = system: extracellular signal-regulated kinase (ERK); conditions: preclinical studies; cited from earlier work
[9] = 360 mg sotorasib + 200 mg itraconazole (Test), day 6, healthy subjects
[10] = 360 mg sotorasib alone (Reference), day 1, single oral dose, healthy subjects
[11] = 960 mg sotorasib + 600 mg rifampin on day 3 (Test), single-dose rifampin
[12] = 960 mg sotorasib + 600 mg rifampin on day 18 (Test), multiple daily dosing of rifampin
[13] = 960 mg sotorasib on day 1 (Reference), healthy subjects

C=CC(=O)N1CCN(c2nc(=O)n(-c3c(C)ccnc3C(C)C)c3nc(-c4c(O)cccc4F)c(F)cc23)[C@@H](C)C1 (atropisomer, axis not shown; (M)) [Sotorasib, 6-fluoro-7-(2-fluoro-6-hydroxyphenyl)-(1M)-1-[4-methyl-2-(propan-2-yl)pyridin-3-yl]-4-[(2S)-2-methyl-4-(prop-2-enoyl)piperazin-1-yl]pyrido[2,3-d]pyrimidin-2(1H)-one]
Cmax [1]: 6130 ng/mL | Tmax [1]: 0.51 h | AUC(0-inf) [1, 9]: 31000 ng·h/mL | AUC(0-inf) [1, 10]: 24600 ng·h/mL | AUC(0-t) [1, 9]: 30700 ng·h/mL | AUC(0-t) [1, 10]: 22700 ng·h/mL | tumor regression (KRAS p.G12C tumors): durable complete tumor regression | route of elimination [2]: mainly eliminated via the fecal route | Geometric mean exposures, based on AUC and Cmax ([3]; following coadministration with rifampin on days 3 and 18): lower following coadministration with rifampin on days 3 and 18 | Cmax [3, 11]: 5340 ng/mL | AUC(0-inf) [3, 11]: 19600 ng·h/mL | AUC(0-t) [3, 11]: 19400 ng·h/mL | Cmax [3, 12]: 4110 ng/mL | AUC(0-inf) [3, 12]: 12400 ng·h/mL | AUC(0-t) [3, 12]: 12300 ng·h/mL | AUC(0-inf) [3, 13]: 25600 ng·h/mL | AUC(0-t) [3, 13]: 25400 ng·h/mL | metabolizing enzyme (CYP3A): mainly metabolized by the hepatic enzymes CYP3A | half-life ([4]; human, in vivo, po, 960 mg, read-out: half-life (t1/2), arithmetic mean): 6.42 to 8.18 h | Tmax ([4]; human, in vivo, po, 960 mg, read-out: median tmax): 1 to 1.47 h | PK and safety profile ([4]; moderate or severe hepatic impairment vs healthy subjects): clinically sufficiently similar to the PK and safety profile of healthy subjects | half-life (t1/2), trend across hepatic function groups ([4]; normal, moderate or severe hepatic impairment, 960 mg sotorasib): no apparent trend related to hepatic impairment | tumor response ([5]; NSCLC, colorectal, pancreatic, appendiceal, endometrial, unknown primary, ampullary, gastric, small bowel, sinonasal, bile duct cancer, or melanoma): stable disease (SD) or partial response (PR) | disease control rate (95% CI) ([5]; colorectal cancer, 42 patients): 73.8% | disease control rate (95% CI) ([5]; non-small cell lung cancer, 59 patients): 88.1% | disease control rate (95% CI) ([5]; other tumor types, 28 patients): 75.0% | inhibition of KRAS^G12C (KRAS^G12C): specifically and irreversibly inhibits | findings in clinical laboratory evaluations, physical examinations, ECGs, and vital signs ([6]; 960 mg sotorasib single dose): no clinically meaningful findings | serious adverse events or treatment-emergent adverse events leading to discontinuation ([6]; 960 mg sotorasib single dose): no serious adverse events or treatment-emergent adverse events leading to discontinuation | adverse event severity ([6]; all adverse events, 960 mg sotorasib): mild in severity | resolution of adverse events ([6]; by end of study): All the adverse events resolved by the end of study | treatment-emergent adverse events considered related to sotorasib ([6]; number of events, 20 subjects, Investigator assessment): 5 | treatment-emergent adverse events ([6]; number of events, 20 subjects, single dose 960 mg sotorasib): 9 | safety and tolerability ([6]; single doses, normal hepatic function, moderate or severe hepatic impairment): safe and well-tolerated | growth and regression of cells and tumors [7]: inhibition of growth and regression of cells and tumors harboring KRAS G12C mutations | inhibition of phosphorylation of ERK [8]: inhibited nearly all detectable phosphorylation
